This note sets out measurements from PubChem BioAssay (NCI).

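Exposure lasted 48 hours, with cells grown in 96-well plates and compounds tested at five concentrations. Abbreviation: GI50, concentration required for 50% inhibition of growth. TGI denotes the concentration required for complete inhibition of growth.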

Test systems include CCRF-CEM leukemia; OVCAR-3 ovarian; MDA-N; COLO 205 colon; SK-MEL-2 melanoma; 786-0 renal; UACC-257 melanoma; HOP-92 NSCLC; K-562 leukemia; RXF 393 renal; SNB-75 CNS.
Holding throughout (test): NCI-60 cell line screen, 48 h

Take `O=C(CC(=O)Nc1cccc(C(=O)O)c1)Nc1cccc(C(=O)O)c1`: the TGI in the experiment with CCRF-CEM leukemia, with OVCAR-3 ovarian, in the experiment with MDA-N, in the experiment on COLO 205 colon, in the experiment on SK-MEL-2 melanoma and in the experiment on 786-0 renal was over 100 µM each time. In addition, the TGI with UACC-257 melanoma, in the experiment on HOP-92 NSCLC and with K-562 leukemia was over 100 µM each time.

On to `Cc1ccc2c(n1)C(=O)c1[nH]c3ccccc3c1C2=O`, for which the GI50 was 2720 nM in the experiment on RXF 393 renal; 3450 nM with CCRF-CEM leukemia; 1260 nM in the experiment with OVCAR-3 ovarian; 1890 nM with COLO 205 colon; 3.36 µM in the experiment on SK-MEL-2 melanoma; 513 nM in the experiment with UACC-257 melanoma. The GI50 with HOP-92 NSCLC is 2920 nM; in the experiment on K-562 leukemia it was 3.14 µM. The TGI in the experiment on RXF 393 renal is 55.4 µM; in the experiment with CCRF-CEM leukemia, over 100 µM; in the experiment on OVCAR-3 ovarian it was 5.72 µM; with COLO 205 colon, 4.14 µM; with SK-MEL-2 melanoma, over 100 µM; with UACC-257 melanoma, 2.05 µM. The TGI with HOP-92 NSCLC was 29 µM; with K-562 leukemia, over 100 µM.

Consider `CCCCCN=Cc1c(O)c(O)c(C(C)C)c2cc(C)c(-c3c(C)cc4c(C(C)C)c(O)c(O)c(C=NCCCCC)c4c3O)c(O)c12`, for which the TGI is 46.8 µM with RXF 393 renal; over 100 µM with CCRF-CEM leukemia; 65 µM with OVCAR-3 ovarian; 9.15 µM in the experiment on COLO 205 colon; over 100 µM in the experiment with SK-MEL-2 melanoma; over 100 µM in the experiment on 786-0 renal. In addition, the TGI in the experiment with UACC-257 melanoma was found to be 46.2 µM; with HOP-92 NSCLC it was 14.6 µM; with K-562 leukemia, 70 µM.

Take `O=[N+]([O-])c1ccccc1S(=O)(=O)c1cc(Cl)cc2c1NCCC2`: the TGI in the experiment with RXF 393 renal, in the experiment with CCRF-CEM leukemia, in the experiment on OVCAR-3 ovarian, in the experiment on COLO 205 colon, in the experiment with SK-MEL-2 melanoma and with 786-0 renal was over 100 µM each time. For the same compound, the TGI in the experiment with UACC-257 melanoma was 96.7 µM; in the experiment on HOP-92 NSCLC, over 100 µM; with SNB-75 CNS it was over 100 µM; with K-562 leukemia, over 100 µM.

Consider `O=[N+]([O-])c1ccc(C=C2C(Cl)=C(Cl)C(Cl)=C2Cl)cc1`, for which the GI50 was 1810 nM with RXF 393 renal; 2210 nM with CCRF-CEM leukemia; 1830 nM in the experiment on OVCAR-3 ovarian; 3200 nM with COLO 205 colon; 2.77 µM in the experiment on SK-MEL-2 melanoma; 2050 nM with HOP-92 NSCLC. The GI50 was 2050 nM in the experiment on SNB-75 CNS and 3.68 µM in the experiment with K-562 leukemia. Besides, the TGI with RXF 393 renal was 3.39 µM; in the experiment on CCRF-CEM leukemia, 6.57 µM; in the experiment on OVCAR-3 ovarian, 3.46 µM; in the experiment with COLO 205 colon it was over 100 µM; with SK-MEL-2 melanoma it was 8.89 µM; with HOP-92 NSCLC, 4.58 µM. In addition, the TGI was 6.98 µM in the experiment on SNB-75 CNS and over 100 µM in the experiment with K-562 leukemia.

Turning to `Cc1nc2ccccc2c(=O)n1NC(=O)c1ccc(CS)cc1`, the TGI in the experiment with CCRF-CEM leukemia is 3.6 µM; in the experiment with OVCAR-3 ovarian, 30.6 µM; in the experiment with COLO 205 colon, 62.9 µM; in the experiment with 786-0 renal, 23.6 µM; in the experiment with UACC-257 melanoma, over 100 µM; with HOP-92 NSCLC, 40.8 µM. The values for the TGI with SNB-75 CNS and in the experiment on K-562 leukemia were over 100 µM and 68.1 µM, respectively.

`CNC(=S)N(C)C(=S)Nn1c(=O)c(C)nn(C)c1=S`: the TGI in the experiment with RXF 393 renal, with CCRF-CEM leukemia, with COLO 205 colon, in the experiment on 786-0 renal, in the experiment with UACC-257 melanoma and with HOP-92 NSCLC was over 100 µM throughout. For the same compound, the TGI in the experiment on SNB-75 CNS and with K-562 leukemia was over 100 µM each time.

For `COc1nc(C(=O)NNC(=O)c2nc(OC)c3ccccc3c2-c2ccccc2)c(-c2ccccc2)c2ccccc12`, the TGI with RXF 393 renal, with CCRF-CEM leukemia, with OVCAR-3 ovarian, in the experiment on COLO 205 colon, in the experiment with SK-MEL-2 melanoma and in the experiment with 786-0 renal was over 100 µM each time. Moreover, the TGI in the experiment with UACC-257 melanoma, with SNB-75 CNS and in the experiment on K-562 leukemia was over 100 µM in each case.

Consider `CC(C)(C)OC(=O)NCC(O)CNC(=O)OC(C)(C)C`, for which the TGI with RXF 393 renal, in the experiment on CCRF-CEM leukemia, in the experiment with OVCAR-3 ovarian, with COLO 205 colon, in the experiment with 786-0 renal and with UACC-257 melanoma was over 100 µM in each case. Further, the TGI in the experiment with HOP-92 NSCLC and in the experiment with K-562 leukemia was over 100 µM throughout.

`Clc1c(Cl)c(Cl)c2nn(C3CCCO3)nc2c1Cl` (configuration not stated): the TGI in the experiment on RXF 393 renal, in the experiment on CCRF-CEM leukemia, in the experiment on OVCAR-3 ovarian, with MDA-N, in the experiment on COLO 205 colon and in the experiment on SK-MEL-2 melanoma was over 100 µM throughout. The TGI with 786-0 renal was over 100 µM; in the experiment on UACC-257 melanoma, over 100 µM; with K-562 leukemia it was 98.3 µM.

With `CCOC(=O)C1=C(C)N(C)C23OC4(C(=O)OC)CC2c2ccccc2C1N3C4=O` (configuration not stated), the TGI with CCRF-CEM leukemia, in the experiment with OVCAR-3 ovarian, with MDA-N, with COLO 205 colon, in the experiment with SK-MEL-2 melanoma and with 786-0 renal was over 100 µM throughout. The TGI with UACC-257 melanoma, in the experiment with HOP-92 NSCLC, with SNB-75 CNS and with K-562 leukemia was over 100 µM throughout.

On to `N#C/C(C(=O)Nc1ccccc1)=C(/N)N1CCOCC1`, for which the TGI with CCRF-CEM leukemia, in the experiment on OVCAR-3 ovarian, in the experiment with MDA-N, in the experiment on COLO 205 colon, in the experiment on SK-MEL-2 melanoma and in the experiment on 786-0 renal was over 100 µM in each case. The TGI in the experiment with UACC-257 melanoma, in the experiment on HOP-92 NSCLC, in the experiment with SNB-75 CNS and in the experiment on K-562 leukemia was over 100 µM throughout.

With `O=C(O)/C=N\Nc1nc2ccccc2[nH]1`, the TGI in the experiment on CCRF-CEM leukemia, in the experiment on OVCAR-3 ovarian, in the experiment with MDA-N, with COLO 205 colon, with SK-MEL-2 melanoma and in the experiment with 786-0 renal was over 100 µM each time. Besides, the TGI in the experiment with UACC-257 melanoma, in the experiment on HOP-92 NSCLC, in the experiment on SNB-75 CNS and with K-562 leukemia was over 100 µM in each case.
